In series [1] the target is T1, NAD-dependent protein deacetylase sirtuin-2 (Homo sapiens) (UniProt Q8IXJ6).
T1 sequence (whole entry): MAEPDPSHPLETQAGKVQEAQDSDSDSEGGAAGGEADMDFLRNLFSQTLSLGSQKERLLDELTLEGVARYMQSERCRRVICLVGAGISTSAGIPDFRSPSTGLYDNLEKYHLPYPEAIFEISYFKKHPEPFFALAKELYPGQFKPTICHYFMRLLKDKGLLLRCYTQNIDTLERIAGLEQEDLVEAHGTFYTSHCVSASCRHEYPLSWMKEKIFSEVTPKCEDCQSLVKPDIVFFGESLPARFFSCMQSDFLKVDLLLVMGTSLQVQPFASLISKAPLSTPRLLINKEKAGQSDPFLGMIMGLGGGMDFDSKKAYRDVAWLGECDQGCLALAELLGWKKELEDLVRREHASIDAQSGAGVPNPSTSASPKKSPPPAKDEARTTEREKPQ
Put plainly: Inhibition of SIRT2 (unknown origin) at 200 uM by fluorescence-based assay.

Series [2] in a line: Drug metabolism assessed as compound formation using compound 4 irradiated with 365 nm 23 mW/cm2 UV light using high-power light-emitting diode by UV/vis spectroscopy. The format is ADME.
Series [3] has as its target T2, NAD-dependent protein deacetylase sirtuin-2 (Homo sapiens, UniProt Q8IXJ6).
T2 sequence (Q8IXJ6 whole entry): T1 sequence (whole entry)
The series is described as follows: Inhibition of SIRT2 (unknown origin) by fluorescence-based assay.

Series [4] in a line: Photo activation assessed as [photo-decomposition irradiated with 365 nm 23 mW/cm2 UV light using high-power light-emitting diode by 1H and 19F NMR spectroscopy. The format is physicochemical.
The target in series [5] is T1, NAD-dependent protein deacetylase sirtuin-2 (Homo sapiens). Put plainly: Binding affinity to recombinant SIRT2 (unknown origin) assessed as photoaffinity labeling at H187 residue at 400 uM in presence of NAD+ and peptide substrate by LC-MS/MS method.
For series [6] the target is unchanged. Put plainly: Binding affinity to recombinant SIRT2 (unknown origin) assessed as detection of tryptic peptide with amino acid sequence 175-IAGLEQEDLVEAHGTFYTSHCVSASCRHEYPLSWMK-210 at 400 uM in presence of NAD+ and peptide substrate by LC-MS/MS method.

Active and inactive are the calls of the source. The rule behind the calls is not given here.

Take `CCCCCC1CC(=O)c2cc(N=[N+]=[N-])ccc2O1` (configuration not stated): in series [1], the inhibition is 51%.
Consider `CCCCCC1CC(=O)c2cc(C(=[N+]=[N-])C(F)(F)F)ccc2O1` (configuration not stated), for which the Drug uptake entry in series [2] is recorded as “Metabolite_Detected”.
For the molecule `CCCCCC1CC(=O)c2cc(C3(C(F)(F)F)N=N3)ccc2O1` (configuration not stated), the inhibition in series [1] came out at 78%. Moreover, the IC50 in series [3] amounted to 8.2 µM. For the same molecule, the Drug metabolism result in series [4] is on record as “Metabolite_Detected”. In addition, the outcome in series [5] and in series [6] was Active.

Source of the values: ChEMBL document CHEMBL3860106, “Identification of the Binding Site of Chroman-4-one-Based Sirtuin 2-Selective Inhibitors using Photoaffinity Labeling in Combination with Tandem Mass Spectrometry” (J Med Chem, 2016).
